Assay [1] relates to MCF-7 breast cancer cells. In words: Irreversible inhibition of cell growth, Stage 1 and Stage 2 (Coulter cell counter). The assay is classed as cell-based. The conditions noted are these: for effect on cell growth compared with controls, Stage 1: 5 μm and 1 μm, 6 days; for effect on cell numbers, Stage 2 (irreversible growth inhibition): re-seeded after 6-day treatment, further 6 days without drug. As for the experimental part: MCF-7 breast cancer cells were seeded into multi-well culture plates at a density of 10^5 cells/well. Cells were allowed to attach and grown until about 30% confluent when they were treated as follows:
Cells were grown for 6 days in growth medium containing the above drugs with changes of medium/drug every 3 days. At the end of this period cell numbers were counted using a Coulter cell counter.
After treatment of cells for a 6-day period with the above drugs cells were re-seeded at a density of 10^4 Cells/well. No further treatments were added. Cells were allowed to continue to grow for a further 6 days in the presence of growth medium. At the end of this period cell numbers were again counted.
Stages 1 and 2 described above were repeated using Control—no treatment, EMATE 20 μM and EMATE 5 μM.
MCF-7 breast cancer cells were seeded into multi-well culture plates at a density of 10^5 cells/well. Cells were allowed to attach and grown until about 30% confluent when they were treated as follows: • Control—no treatment • Compound of Interest (COI) 20 μM
Cells were grown for 6 days in growth medium containing the COI with changes of medium/COI every 3 days. At the end of this period cell numbers were counted using a Coulter cell counter.
After treatment of cells for a 6-day period with the COI cells were re-seeded at a density of 10^4 cells/well. No further treatments were added. Cells were allowed to continue to grow for a further 6 days in the presence of growth medium. At the end of this period cell numbers were again counted.

The next assay concerns MCF7 cells. The experiment in a line: Proportion of cells in mitosis (PI stained cytospins, confocal microscopy). In kind it is cell-based. To be noted: 24 hours (control 4%). The procedure:
To determine the proportion of cells in mitosis, drug treated cells were collected by trypsinisation and cytospins prepared. Cells were fixed in ice cold methanol for 5 minutes, air dried and DNA was stained using propidium iodide (PI) (0.1 mg/ml in phosphate buffered saline (PBS) containing 10% (v/v) newborn calf serum and 0.05% (w/v) sodium azide). Cells were analysed by confocal microscopy using a Zeiss Axiovert 100 M microscope equipped with the LSM 510 confocal system (Zeiss, Jena, Germany).
Effect of estrone derivatives on mitosis in MCF7 cells. MCF7 cells were treated with the indicated compounds for 24 hours. Cells were recovered by trypsinisation and cytospins prepared. DNA was stained with PI and cells in mitosis (i.e., with condensed chromosomes) determined as a percentage of total cells.

The conditions of assay [2]: rats, oral (16); cited from earlier work.
Assay [3] has as its system MCF-7 breast cancer cells. In words: Cell morphology by photomicrographs. In kind it is cell-based. The procedure: (§1) MCF-7 (ER+) and MDA-MB-231 (ER−) breast cancer cells were obtained from the American Type Culture Collection (Rockville, Md.). Cells were routinely cultured in 25 cm^2 culture flasks in Eagle's minimum essential medium (EMEM) with Hepes buffer (20 mM). This medium was supplemented with L-glutamine (2 mM), sodium hydrogen carbonate (10 mM), 1% non-essential amino acids and 5% (v/v) foetal calf serum (FCS). Before adding test compounds, cells were washed with phosphate-buffered saline (PBS) and treatments added in phenol-red free medium containing 2% stripped FCS and supplements. The effects of 2-MeOE1 or 2-MeOEMATE on the growth of MCF-7 cells was assessed using a Cell Titer 96 cell proliferation assay (Promega, Southampton, Hants, UK) according to the manufacturers' instructions. For this, cells (5000 per well) were cultured in medium containing phenol-red and 10% FCS and were exposed to a drug for 4 days before the assay was performed. For MDA-MB-231 cells, cell numbers were determined using a Coulter counter.
Photomicrographs of control and treated cells were taken under normal conditions of light and exposure using an Olympus SL35 Type 12 camera under an Olympus CK2 microscope (×100 magnification).

In assay [4] the test system is nitrosomethylurea-induced mammary tumours. In words: Growth of NMU-induced mammary tumours in intact rats. The assay is classed as in vivo, rat. The conditions noted are these: 20 mg/kg/day, p.o., 11 days, individual animals. The procedure:
The effect of 2-MeOEMATE on mammary tumour growth was examined in a preliminary study using Ludwig rats (Harlan Olac, Bicester, UK) in which tumours were induced by inoculation of NMU. Tumour development was monitored regularly and when 0.5-1.0 cm^3 in volume, animals received vehicle (propylene glycol, 200 μl/day, p.o.), 2-MeOEMATE (20 mg/kg/day, p.o.) or 2-MeOE1 (20 mg/kg/day, p.o.) daily for an 11 day period. Tumour length and width was measured with callipers and tumour volumes calculated as described (21).

Assay [5] deals with MCF-7 breast cancer cells. In words: Cell Titer 96 cell proliferation assay, 4-day drug exposure. In kind it is cell-based. To be noted: 4 days. As for the experimental part: as §1

Molecules are shown by their SMILES. Values joined by “and” are separate entries in the source; they are usually repeats but may differ in a detail not shown here. Equal entries are not always repeated.

With `CCc1cc2c(cc1O)CC[C@@H]1[C@@H]2CC[C@]2(C)C(=O)CC[C@@H]12` [2-EtE1, 2-Ethylestrone, reference compound], in assay [1], the “effect on cell growth compared with controls, Stage 1” value is given as “little effect on cell growth” and the “effect on cell numbers, Stage 2 (irreversible growth inhibition)” value is recorded as “little effect on cell numbers”. In addition, in the assay with MCF7 cells (500 nM), the “mitotic cells, percentage of total cells” value was 4%. The “mitotic cells, percentage of total cells” value in the assay on MCF7 cells (5 μM) came to 6%.

Consider `CC12CCC3c4ccc(OS(N)(=O)=O)cc4CCC3C1CCC2=O` (stereo not drawn) [EMATE, oestrone-3-O-sulphamate], for which the “cell number, Stage 1” value is “EMATE 5 μM = 139% control” in assay [1] (5 μM) and “EMATE 20 μM = 119% control” in assay [1] (20 μM). Besides, the “cell number, Stage 2” value in assay [1] (5 μM) is listed as “EMATE 5 μM = 98% control”; in assay [1] (20 μM), “EMATE 20 μM = 103% control”. Moreover, in assay [2], the “oral uterotrophic activity relative to estradiol” value was 100 times. Further, the “effect on cell morphology” value in assay [3] (10 μM) is recorded as “did not affect cell morphology”.

On to `C[C@]12CC[C@@H]3c4ccc(O)cc4CC[C@H]3[C@@H]1CCC2=O` [Oestrone], for which the “effect on cell morphology” value in assay [3] (10 μM) is reported as “did not affect cell morphology”.

`COc1cc2c(cc1O)CC[C@@H]1[C@@H]2CC[C@]2(C)C(=O)CC[C@@H]12` [2-MeOE1, 2-methoxyoestrone, reference compound]: the “reduction in tumour volume” value in assay [4] was “little effect on tumour growth and no change in tumour volume and 25%”. Moreover, the “effect on cell growth compared with controls, Stage 1” value in assay [1] was “little effect on cell growth”. Further, the “effect on cell numbers, Stage 2 (irreversible growth inhibition)” value in assay [1] was “little effect on cell numbers”. Further, the figures for the “inhibition of proliferation of MCF-7 cells” value in assay [5] (0.1 μM), in assay [5] (1.0 μM) and in assay [5] (10 μM) were “little effect”, “little effect” and 19%, respectively. In addition, the “effect on cell morphology” value in assay [3] (1 μM, 24 h) is recorded as “little effect on cell morphology”.

Source of the values: US7078395B1, “Methods for treating or preventing cancer by preventing, inhibiting or arresting cell cycling” (priority 1999, dated 2006).
